From patent publication US9487561B2, “Biologically active complex and its preparation” (HAMLET PHARMA AB, priority 2010, dated 2016)
Entries after “also recorded” stand apart in the source; their conditions may differ.

What was measured:
[1] = system: kidney carcinoma (A498) cells; test: cell death assay with p38 inhibitors; format: cell-based, human; settings: SB202190 20 μM or BIRB796 10 μM; HAMLET 3 h
Method: FIG. 4. p38 inhibition rescues carcinoma and lymphoma cells from death and morphological change in response to HAMLET. (A, B) p38 inhibition (SB202190, 20 μM) rescued carcinoma (A549 and A498) and T-cell lymphoma (Jurkat) cells from death in response to HAMLET (7-49 μM, 3 h). Viability was quantified by Trypan blue exclusion (A) or as ATP levels (B). Data are means+SEMs for 3 independent experiments. (C) Real-time images of cell morphology after HAMLET exposure, showing that p38 inhibition prevents morphological changes in carcinoma cells (nuclear condensation, rounding up and blebbing). (D-E) A549 lung carcinoma cells were transfected using siRNA against p38α/MAPK14 and/or p38β/MAPK11 or non-targeting siRNA. Relative MAPK11 and MAPK14 mRNA levels are shown (MAPK/GAPDH, in % of non-transfected cells) as means+SEMs for 4 independent experiments. […] (F) The cytotoxic effect of HAMLET was quantified 48 hours after transfection as reduction in ATP levels. […]
FIG. 12. […] Viability was quantified by ATP levels.
Cells were detached from cell culture flasks with versen (0.2 g EDTA in 200 ml H2O and 800 ml PBS), washed with PBS and resuspended in serum-free RPMI-1640. […] Cell death was quantified by trypan blue exclusion (Chroma Gesellschaft Schmid & Co) or by measuring ATP levels (ATPlite Kit, PerkinElmer, Infinite 200, Tecan). […]

[2] = system: lung carcinoma, kidney carcinoma and lymphoma cells; test: HAMLET-induced change in cell morphology (light microscopy, real-time imaging); format: cell-based
Method: (§1) Cells were detached from cell culture flasks with versen (0.2 g EDTA in 200 ml H2O and 800 ml PBS), washed with PBS and resuspended in serum-free RPMI-1640. HAMLET dissolved in PBS was incubated with cells (0.5×10^6/ml for A549, A498 and HeLa cells; 1×10^6/ml for Jurkat) at 37° C. FCS was added after 1 hour. Cell death was quantified by trypan blue exclusion (Chroma Gesellschaft Schmid & Co) or by measuring ATP levels (ATPlite Kit, PerkinElmer, Infinite 200, Tecan). Light images were captured using the HOLOMONITOR™ M2 digital holographic microscope (Phase Holographic Imaging AB, Lund, Sweden).
For live cell imaging, cells were pre-treated with SB202190 for 30 minutes, nuclei were stained with Hoechst 33342 (Invitrogen) and Alexa-Fluor 568-labeled HAMLET (10% labeled HAMLET, Molecular Probes) was added in serum-free medium. FCS was added after 1 hour. Fluorescence was detected with pinhole settings corresponding to 1 airy unit. The cells were kept at 37° C., 5% CO2 and examined unfixed by LSM510 DUO confocal microscopy (Carl Zeiss).
To examine if the HAMLET-induced change in carcinoma cell morphology was modified by the channel inhibitors, lung carcinoma, kidney carcinoma and lymphoma cells were exposed to HAMLET in the presence or absence of ion channel inhibitors and examined by light microscopy (FIG. 2C).
To determine if p38 signaling was involved in cell death, we inhibited p38α and p38β in lung and kidney carcinoma and Jurkat lymphoma cells with two small-molecule p38 inhibitors: SB202190, a highly specific pyridinyl-imidazole inhibitor; and BIRB796, a diaryl urea compound, which bears little structural similarity to SB202190 (Fabian et al., 2005, Nature Biotechnology 23: 329-336), ([…] and FIG. 12B). […] The effect of p38 inhibition on cell death was also observed by real-time confocal imaging of lung carcinoma cells exposed to fluorescently labeled HAMLET.

[3] = system: A549 lung carcinoma cells; test: cell death assay (trypan blue exclusion, ATP levels); format: cell-based, human; settings: for effect of p38 inhibitor on death in response to HAMLET: SB202190 20 μM or BIRB796 10 μM, HAMLET 3 h
Method: as §1
(§2) For studies with inhibitors, cells were pretreated for 30 minutes. Inhibitors used were Gadolinium chloride (GdCl3, 100 μM), Barium chloride (BaCl2, 1 mM), Ruthenium red (30 μM), tetrandrine (10 μM) and amiloride (1 mM), all from Sigma Aldrich. For p38 inhibition, SB202190 (20 μM, Sigma Aldrich) or BIRB796 (10 μM, Axon Medchem) dissolved in DMSO was used. The wells were washed twice with PBS and new medium with inhibitor was added. For RNA interference, FlexiTube siRNA Premixes against MAPK11 (SI00606053), MAPK14 (SI00300769) and All Star Negative Control siRNA (SI03650318) from Qiagen was used. A549 forward was transfected using 25 nM final siRNA concentration in 24-well plate. After 48 hours, knockdown was examined by Western blot (anti-p38, 1:1000, Cell Signaling) and RT-PCR (MAPK14, QT00079345, QIAGEN).
(§3) To examine if functional ion channels are important for the tumoricidal activity of HAMLET, A549 lung carcinoma cells in suspension were pretreated with the channel inhibitors for 30 minutes and exposed to increasing concentrations of HAMLET for three hours.
A549 cells were seeded to a density of 0.8-1.0×10^6 cells/well in RPMI without FCS. Different volumes of HAMLET/oleate and oleic acid solutions were added. The cells were incubated for 1 hour at 37° C. 5% CO2 for 1 hour before 50 μl of FCS (5% final concentration) were added to the wells. The cells were then further incubated for additional 2 hours before the viability were determined by trypan blue exclusion and ATP measurements.

[4] = system: Human renal tubular epithelial cells (HRTEC); test: Ca^2+ and K^+ levels in healthy, differentiated cells in primary culture; format: cell-based
Method: Human renal tubular epithelial cells (HRTEC) were preincubated with Fluo-4 as described, exposed to HAMLET (35 μM) and examined by real time confocal microscopy.
(§4) To further characterize ion channel activation by HAMLET, carcinoma cells were pretreated with defined channel blockers. Amiloride is a sodium channel inhibitor with effects on mechanosensitive channels, barium chloride (BaCl2) is a general K^+ channel inhibitor, gadolinium chloride (GdCl3) inhibits mechanosensitive channels, Ruthenium red is a general Ca^2+ inhibitor and tetrandrine inhibits large conductance, Ca^2+ activated K^+ channels. The carcinoma cells were preincubated with Fluo-4 as described above, pretreated with each of the channel inhibitors for 30 minutes, exposed to HAMLET (35 μM) and examined by real time confocal imaging. Furthermore, cells treated with EGTA were compared to cells with intact extracellular Ca^2+ levels, to distinguish the early peak from the subsequent influx of Ca^2+ (FIG. 1B, Table in FIG. 8).

[5] = system: lung carcinoma cells (A549); test: intracellular Ca^2+, Fluo-4, real time confocal microscopy; format: cell-based, human
Method: To examine if HAMLET modulates ion channel activity in tumor cells, we first quantified changes in intracellular Ca^2+ and K^+. Lung carcinoma cells were first preloaded with the Fluo-4 Ca^2+ fluorophore Fluo-, exposed to HAMLET (35 μM) and examined by real time confocal microscopy for changes in fluorescence intensity (FIG. 1A). The Ca^2+ ionophore A23187, which acts as a Ca^2+ shuttle across cell membranes, was used as a positive control (Abbott et al., 1979, Antimicrobial Agents and Chemotherapy 16, 808-812).
(§5) To distinguish Ca^2+ mobilization from intracellular stores from the influx of extracellular Ca^2+, EGTA was then added to the cell medium. […] K^+ fluxes across tumor cell membranes were subsequently quantified under the same experimental conditions, using the fluorophore FLUXOR™, which fluoresces after thallium has entered cells through K^+ channels.
as §4

[6] = system: potassium channels in A549, lung carcinoma cell lines; test: FLUXOR potassium (K^+) channel assay, Thallium (Tl^+) indicator; format: cell-based, human; settings: carcinoma cells, 30 minutes pretreatment, HAMLET 35 μM
Method: The FLUXOR™ potassium (K^+) channel assay was performed on the TECAN infinite F200 (Tecan Group, Switzerland), according to the manufacturer's instructions (Invitrogen). Briefly, this involved FLUXOR™ loading buffer (Hank's Balanced Saline Solution, (HBSS) buffered with 20 mM HEPES and pH adjusted to 7.4 with NaOH. POWERLOAD™ concentrate and water-soluble Probenecid were used respectively to enhance the dye solubility and retention, respectively. Media were removed from the cell plates manually, and 80 μL of loading buffer containing the FLUXOR™ dye mix was applied to each well. Once inside the cell, the nonfluorescent AM ester form of the FLUXOR™ dye is cleaved by endogenous esterases into a thallium-sensitive indicator. The dye was loaded for 60 minutes at room temperature and then removed with the supernatant. After washing with dye-free PBS buffer, a final volume of 80 μL assay buffer containing water-soluble probenecid was added. Cells received one of the following channel inhibitors: 3.3 μL per well of 30 mM amiloride, 3.0 μL of 32 mM BaCl2, 1.8 μL of 5.4 mM gadolinium, 3 μL 3.2 mM tetrandrine and 2.3 μL of 2.6 mM ruthenium red, and were then incubated at room temperature (23-25° C.) for 30 minutes to allow equilibration of the test compounds. Prior to injection, stimulation buffer was prepared from the chloride-free buffer and thallium reagents provided in the kit as well as HAMLET, to achieve a final added concentrations of 2 mM free Tl+ and 35 μM HAMLET after 1:5 dilution upon injection of the stimulus buffer onto cells that had been loaded with FLUXOR™ dye.
as §5
Potassium channel activity was therefore measured in A549, lung carcinoma cell lines using an indicator, which emits fluorescence signal upon entering the cells via opened potassium channels, Thallium (Tl^+) indicator (FIG. 18).

[7] = system: p38, HSP27, ERK1/2 in kidney and lung carcinoma cells; test: MAPK phosphorylation (phospho-MAPK antibody arrays, Western blot); format: cell-based, human
From the text: Equal volumes of lysates were separated by SDS-PAGE on 4-12% Bis-Tris gels (Invitrogen) and blotted onto PVDF membranes. For other Western blots, 200,000 cells were allowed to adhere overnight in a 6-well plate. After HAMLET treatment the cells were washed with PBS and lysed in M-PER lysis buffer (Pierce) containing Complete protease inhibitor cocktail and PhosSTOP phosphatase inhibitor cocktail (both from Roche). The detached cells were collected by centrifugation. The lysates were cleared by centrifugation and protein concentrations were measured using the DC Protein Assay (Bio-Rad Laboratories, Hercules, Calif.). Equal amounts of protein were separated by SDS-PAGE on 4-12% Bis-Tris gels (Invitrogen) and blotted onto PVDF membranes (GE Healthcare). Membranes were saturated with BSA (GAPDH) or nonfat dry milk (phospho-p38, p38, phospho-ERK1/2, ERK1/2) and incubated with anti-p38, anti-phospho-p38, anti-ERK1/2, anti-phospho-(Thr202/Tyr204)-p44/42 (all 1:500-1000, Cell Signaling Technology), anti-ATF6 (1:1000, IMG-273, Imgenex), anti-phospho-eIF2α (Ser51), (1:500, Cell Signaling Technology) or anti-GAPDH (1:3000-5000, Novus Biologicals) antibodies followed by horseradish peroxidase-conjugated anti-rabbit (1:1000, DakoCytomation, Glostrup, Denmark) or anti-mouse (1:40000-50000, Novus Biologicals) antibodies for staining. Bound antibodies were detected with ECL Plus Western Blotting Reagent (GE Healthcare, Little Chalfont, UK) and GelDoc equipment (Bio-Rad Laboratories, Hercules, Calif.). If required, membranes were stripped with Restore Western Blot Stripping Buffer (Pierce, Rockford, Ill.), blocked and reprobed with new antibodies. MAP kinase phosphorylation was analyzed on a Human Phospho-MAPK array (Proteome Profiler Array, R&D Systems) as per the manufacturer's instruction. Band and spot intensities were quantified using ImageJ (Abramoff et al., July 2004, Biophotonics International). Cytokine quantification (IL6, IL8, TNFα) was performed on an […] 1000 immunoassay system (Siemens Diagnostics).
P38 MAPKs are activated by dual phosphorylation on conserved threonine and tyrosine residues by MKK3/6 and when phosphorylated, a wide variety of effector proteins, including MAPKAPK2 kinases, HSP27 chaperones and ATF2 and CHOP transcription factors become active (Cuenda et al., 2007, Biochimica et Biophysica Acta 1773: 1358-1375).

[8] = system: lymphoma cells (Jurkat cells); test: cell death assay with inhibitors; format: cell-based; settings: SB202190 20 μM; HAMLET 7-49 μM, 3 h
Method: GAPDH was used as a loading control.
as §1, §2, §3

Cc1ccc(-n2nc(C(C)(C)C)cc2NC(=O)Nc2ccc(OCCN3CCOCC3)c3ccccc23)cc1 [BIRB796]
effect of p38 inhibitor on death in response to HAMLET [1]: rescued
effect of p38 inhibitor on morphological changes associated with HAMLET induced cell death ([2]; BIRB796 10 μM, HAMLET 35 μM, 3 h): diminishes the morphological changes
effect of p38 inhibitor on death in response to HAMLET [3]: rescued

[Cl][Gd]([Cl])[Cl] [GdCl3, Gadolinium chloride, reference compound]
effect of channel blocker on response to HAMLET in healthy cells [4]: no effect
effect of channel blocker on first, EGTA insensitive Ca^2+ peak in response to HAMLET ([5]; 30 minutes pretreatment, HAMLET 35 μM): inhibited
effect of ion channel inhibitor on HAMLET-induced change in cell morphology ([2]; light microscopy): did not prevent the morphological changes
effect of channel inhibitor on HAMLET-induced cell death ([3]; 30 minutes pretreatment, HAMLET three hours): no effect on viability
effect of channel blocker on K^+ flux in response to HAMLET [6]: strongly inhibited

Oc1ccc(-c2nc(-c3ccncc3)c(-c3ccc(F)cc3)[nH]2)cc1 [SB202190]
effect of p38 inhibitor on p38 and HSP27 phosphorylation upon HAMLET treatment [7]: marked decrease in p38 and HSP27 phosphorylation
effect of p38 inhibitor on death in response to HAMLET [1]: rescued
effect of p38 inhibitor on death in response to HAMLET [8]: rescued
effect of p38 inhibitor on death in response to HAMLET [3]: rescued; also recorded: clearly attenuated

CNc1ccc2oc(C[C@H]3O[C@@]4(CC[C@H]3C)O[C@H]([C@H](C)C(=O)c3ccc[nH]3)[C@H](C)C[C@H]4C)nc2c1C(=O)O [ionophore, reference compound]
Ca^2+ response in HRTECs ([4]; HAMLET 35 μM): rapid and sustained increase in Ca^2+
cells involved in Ca^2+ response [5]: all cells
intracellular Ca^2+ response ([5]; HAMLET 35 μM): more drastic and sustained increase in intracellular Ca^2+ levels than HAMLET
